Measured values published in patent US20100130522A1, “COMPOUNDS FOR INFLAMMATION AND IMMUNE-RELATED USES” (Synta Pharmaceuticals Corp., priority 2008, published 2010).

Tests used:
[1] = system: IL-2 production, Jurkat cells; test: Inhibition of IL-2 production in PHA-activated Jurkat cells (ELISA); assay type: cell-based; conditions: Homo sapiens, 1% FBS, given as activity class
Protocol: Jurkat cells were placed in a 96 well plate (0.5 million cells per well in 1% FBS medium), and then a test compound of this invention was added at different concentrations. After 10 minutes, the cells were activated with PHA (final concentration 2.5 μg/mL) and incubated for 20 hours at 37° C. under 5% CO2. The final volume was 200 μL. Following incubation, the cells were centrifuged, and the supernatants collected and stored at −70° C. prior to assaying for IL-2 production. A commercial ELISA kit (IL-2 Eli-pair, Diaclone Research, Besancon, France) was used to detect production of IL-2, from which dose response curves were obtained. The IC50 value was calculated as the concentration at which 50% of maximum IL-2 production after stimulation was inhibited versus a non-stimulation control.

CRACM1/STIM1-CHOK1 = biological target: T1, CRACM1/STIM1-CHOK1 (Homo sapiens, UniProt Q96D31); test: Patch clamp inhibition of ICRAC current in CRACM1/STIM1-CHOK1 cells; assay type: cell-based; conditions: 500 nM; given as activity class
T1 construct: Full length human Stim1, CracM1, CracM2 and CracM3 cDNA; Stim1 induced with doxycycline
Protocol: Manual patch clamp experiments are conducted in the tight-seal whole-cell configuration at room temperature (21-25° C.). Patch pipettes are fashioned from borosilicate glass capillary tubes and have resistances between 2-4 MΩ after filling with standard intracellular solution. High resolution current recordings are acquired with a computer-based patch clamp amplifier system (EPC-10, HEKA, Lambrecht, Germany). All voltages are corrected for a liquid junction potential of 10 mV between external and internal solutions with glutamate as the intracellular anion. Currents are filtered at 2.9 kHz and digitized at 10 μs intervals. Capacitive currents and series resistance are determined and corrected before each voltage ramp using the automatic capacitance compensation of the EPC-10.
Automated patch clamp experiments are conducted with the QPatch 16 (Sophion Bioscience, Ballerup, Denmark) at room temperature (21-25° C.). Immediately following the establishment of giga-seal whole-cell configuration, the cells membrane potential is clamped at 0 mV. Voltage ramps of 50 ms duration spanning the voltage range of −100 to +100 mV are then stimulated at a rate of 0.33 Hz. Currents are filtered at 2.9 kHz and digitized at 200 μs intervals. Capacitive currents and series resistance are determined and corrected before each voltage ramp using the automatic capacitance compensation.
In general, a whole cell patch clamp method is used to examine the effects of a compound of the invention on a channel(s) that mediates ICRAC. In such experiments, a baseline ICRAC measurement is established within the first 70 voltage ramps, or 140 seconds, for a patched cell. Then the cells are perfused with the compound to be tested and the effect of the compound on ICRAC is measured for at least an additional 440 to 500 seconds. A compound that modulates ICRAC (e.g., inhibits) is a compound that is useful in the invention for modulating CRAG ion channel activity.
Off-line analysis with the Heka PatchMaster software is used to separate the ICRAC membrane current from the cells basal background currents. In a typical recording, InsP3 stimulated ICRAC currents begin to develop in 6 to 12 seconds after whole cell is established. Therefore, the first 1-4 voltage ramps represent the basal membrane currents in the absence of ICRAC and the average value is subtracted from all subsequent traces. The current value at −80 mV for each ramp trace is then measured and plotted against time. The resulting current versus time data is exported into a Microsoft Excel spreadsheet. The % ICRAC inhibition in each cell is calculated by comparing the amount of current just prior to the compound perfusion to the amount of current after the cells has been perfused with the compound for 440-500 seconds. The IC50 value and Hill coefficient for each compound is estimated by fitting all the individual data points to a single-site Hill equation.
TREx™-CHO cells were transfected with human Stim1 (recombinant DNA in pcDNA4/TO/myc-His™ A with a myc epitope tag in the N-terminal) and either CracM1, CracM2 or CracM3 (recombinant DNA in pcDNA 3.1 with a HA epitope tag in the N-terminal). Stably expressing cells were selected by growing the transfected cells in antibiotics for two to three weeks. Individual cell clones were isolated via serial dilution. Full length human Stim1, CracM1, CracM2 and CracM3 cDNA, TREx™-CHO cells, pcDNA4/TO/myc-His™ A and pcDNA 3.1 were purchased from Invitrogen (Carlsbad, Calif.). All cells clones are grown in Ham's F-12 media supplemented with 10% fetal bovine serum, penicillin 100 U/ml, streptomycin 100 ? g/ml, Zeocin™ (200 ? g/ml), Geneticin (500 ? g/ml) and blasticidin (10 ? g/ml) in an atmosphere of 95% air/5% CO2. Stim1 expression was induced with doxycycline (1 ? g/ml) for 16-20 hrs. […]

T1 sequence (Q96D31 whole entry): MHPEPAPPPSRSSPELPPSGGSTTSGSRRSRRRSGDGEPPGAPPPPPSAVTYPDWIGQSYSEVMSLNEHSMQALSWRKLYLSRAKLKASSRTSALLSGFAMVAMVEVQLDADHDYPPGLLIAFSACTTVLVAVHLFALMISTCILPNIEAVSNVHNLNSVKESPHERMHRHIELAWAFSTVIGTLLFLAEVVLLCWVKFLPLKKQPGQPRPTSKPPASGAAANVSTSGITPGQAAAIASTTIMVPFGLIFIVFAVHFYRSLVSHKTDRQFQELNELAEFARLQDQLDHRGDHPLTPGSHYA

IC50 [1]	inhibition at 0.5 µM (CRACM1/STIM1-CHOK1)	Compound
< 50 nM	70 to 100%	Cc1ccc(OCc2ccccn2)cc1-c1ccc(NC(=O)c2c(F)cccc2F)cc1 [Compound 13, 2,6-difluoro-N-(2′-methyl-5′-(pyridin-2-ylmethoxy)-biphenyl-4-yl)benzamide]
< 50 nM	70 to 100%	O=C(Nc1ccc(-c2cc(Oc3nccs3)ccc2Cl)cn1)c1c(F)cccc1F [Compound 12, N-(5-(2-chloro-5-(thiazol-2-yloxy)phenyl)pyridin-2-yl)-2,6-difluorobenzamide]
< 50 nM	70 to 100%	Cc1ccc(-c2nc(-c3cccnc3)cs2)cc1-c1cnc(NC(=O)c2c(F)cccc2F)cn1 [Compound 20, 2,6-difluoro-N-(5-(2-methyl-5-(4-(pyridin-3-yl)thiazol-2-yl)phenyl)pyrazin-2-yl)benzamide]
< 50 nM	70 to 100%	O=C(Nc1ccc(-c2cc(Oc3ccccn3)ccc2Cl)cc1)c1c(F)cccc1F [Compound 4, N-(2′-chloro-5′-(pyridin-2-yloxy)biphenyl-4-yl)-2,6-difluorobenzamide]
